{"source": "patent US20230241164A1", "about": "“C-Type Natriuretic Peptides and Methods Thereof in Treating Cancer” (PHARMAIN CORPORATION, priority 2020, published 2023)", "key": {"[1]": {"test": "Pharmacokinetic study: plasma CNP (ELISA) after subcutaneous bolus in CD-1 mice", "details": "subcutaneous 2.0 mg/Kg, FIG. 1A", "procedure": "All test articles were formulated or dissolved in 100 mM sorbitol, 100 mM methionine, 20 mM histidine, pH 6.0. […] Blood samples were processed in K2EDTA tubes to obtain plasma. Plasma was analyzed by commercially available CNP ELISA kit from Phoenix Pharmaceuticals (cat #EKE-012-03). […] [SEQ ID NO. 6]. […] The details of the polymer are described in Castillo et al., Pharm. Res., (2012) 29(1); p 306-18, herein incorporated by reference in its entirety.\nError bars represent standard deviation of n=5 plasma samples."}, "[2]": {"details": "bolus injection, healthy human volunteers; cited from earlier work"}, "[3]": {"details": "species not stated; cited from earlier work"}, "[4]": {"test": "Pharmacokinetic study of dCNP-s1 and dCNP-s2: plasma CNP after subcutaneous bolus in CD-1 mice", "assay_type": "in vivo", "details": "subcutaneous bolus 2.0 mg/Kg, FIG. 30", "procedure": "For this pharmacokinetic study, all animals (mice) for this study were maintained under a 12-hour light/12-hour dark cycle with free access to water and standard mouse diet (Lab Pico Rodent #5053; Animal Specialties, Woodburn, Oreg.). Male CD-1 mice (6-8 weeks old; Charles River, Hollister, Calif.) were treated with 2.0 mg/Kg of CNP derivative s1 (dCNP-s1; PharmaIN Corp, Bothell, Wash.), and CNP derivative s2 (dCNP-s2: PharmaIN Corp, Bothell, Wash.) via subcutaneous bolus administration between the shoulder blades."}, "[5]": {"system": "TRAMPC-1 mouse prostate cancer cells", "test": "Prostate cancer subcutaneous model, treatment from day 6, tumor size", "assay_type": "in vivo, mice", "details": "Anti-CD8 Ab 5 mg/kg i.p.", "procedure": "In this study, male C57BL/6J mice (6 weeks old, male, n=10) were purchased from Kyodo (Saga, Japan) and maintained under a 12-hour light/12-hour dark cycle with free access to water and standard mouse diet (MF diet; Oriental Yeast Co., Ltd. Tokyo Japan). Mice were implanted with TRAMPC-1 mouse prostate cancer cells (1,000,000 cells/mouse) (ATCC, Manassas, Va.) in the subcutaneous. From the 6th day (early stage of tumor growth), mice were treated with a bolus dose of dCNP (described in Example 1) (0.3 mg/kg s.c. or 1.0 mg/kg s.c.) with or without Anti-CD8 antibody (a-CD8; 5 mg/Kg i.p.; BioX cells, West Lebanon, N.H.) in buffer containing Methionine 100 mM (Tokyo Chemical Industry Co., Ltd., Tokyo, Japan); Sucrose 100 mM (Tokyo Chemical Industry Co., Ltd.); Histidine 50 mM (Tokyo Chemical Industry Co., Ltd.); in H2O (Otsuka Pharmaceutical, Tokushima, Japan)], Docetaxel (1 mg/kg i.p.) in Saline with or without Anti-CD8 Ab (5 mg/kg i.p.) as reference control, and or with Phosphate buffered saline (PBS) alone via i.p. as control. Mice were treated total of 14 days (5 days of once daily, 2 days of rest, 5 days of once-daily treatment and 2 days rest). Anti-CD8 Ab (a-CD8) was administered on −2, 1, 4, 7, 10 and 13th day. Tumor sizes were measured with caliper. Statistical analysis was performed by Student t-tests by using GraphPad Prism *P<0.0001 vs. Control or a-CD8 group (n=10). […]"}, "[6]": {"system": "TRAMPC-1 mouse prostate cancer cells", "test": "Prostate cancer subcutaneous model, treatment from day 19, tumor size", "assay_type": "in vivo, mice", "procedure": "(§1) In this study, male C57BL/6J mice (6 weeks old, male, n=10) were purchased from Kyodo (Saga, Japan) and maintained under a 12-hour light/12-hour dark cycle with free access to water and standard mouse diet (MF diet; Oriental Yeast Co., Ltd. Tokyo Japan). Mice were implanted with TRAMPC-1 mouse prostate cancer cells (1,000,000 cells/mouse) (ATCC, Manassas, Va.) in the subcutaneous. From the 19th day (averaged tumor size was 70 mm3), mice were treated with a bolus dose of long acting CNP derivative or dCNP (described in Example 1) (0.3 mg/kg s.c. or 1.0 mg/kg s.c.) in buffer [Methionine 100 mM (Tokyo Chemical Industry Co., Ltd., Tokyo, Japan); Sucrose 100 mM (Tokyo Chemical Industry Co., Ltd.); Histidine 50 mM (Tokyo Chemical Industry Co., Ltd.); in H2O (Otsuka Pharmaceutical. Tokushima, Japan)], Docetaxel (DTX1 mg/kg i.p.) in Saline, all with or without anti-CD8 (5 mg/Kg i.p.; BioX cell; West Lebanon, N.H.) or Phosphate buffered saline (PBS) alone via i.p. All Docetaxel groups were used as mechanism of action comparator chemotherapeutic agent. Mice were treated total of two weeks (5 days of once daily, 2 days of rest, 5 days of once-daily treatment and 2 days rest). Anti-CD8 Ab was administered every 3 days starting day 19th. Tumor sizes were measured with caliper."}, "[7]": {"system": "TRAMPC-1 mouse prostate cancer cells", "test": "Gene expression within prostate tumor (quantitative RT-PCR)", "assay_type": "in vivo, mice", "details": "tumor harvested at day 30", "procedure": "as §1, with “Pharmaceutical,” for “Pharmaceutical.”, “(DTX 1” for “(DTX1”, “for 2” for “total of two”, “was harvested at day 30 and extracted RNA, then Quantitative RT-PCR was performed; error bars are SEM. Statistical analysis was performed by Student t-tests by using GraphPad Prism *P<0.05 or **P<0.01 vs. Control group (n=3-6).” for “sizes were measured with caliper.”"}, "[8]": {"test": "Immune activation in normal healthy mice (blood FACS, spleen gene expression)", "assay_type": "in vivo", "details": "normal healthy mice, 0.1, 0.3, 1.0 mg/kg s.c. day 1-5", "procedure": "In this study, male C57BL/6J mice (6 weeks old n=3) were purchased from Kyodo (Saga, Japan) and maintained under a 12-hour light/12-hour dark cycle with free access to water and standard mouse diet (MF diet; Oriental Yeast Co., Ltd. Tokyo Japan). Mice were treated with a bolus dose of 0, 0.1, 0.3, and 1.0 mg/kg CNP derivative or dCNP (described in Example 1) in buffer (Methionine 100 mM (Tokyo Chemical Industry Co., Ltd., Tokyo, Japan), sucrose 100 mM (Tokyo Chemical Industry Co., Ltd.), histidine 50 mM (Tokyo Chemical Industry Co., Ltd.); in H2O (Otsuka Pharmaceutical, Tokushima, Japan)) or buffer alone (for control group). Administration is by bolus subcutaneous injection under isoflurane anesthesia, at day 1, 2, 3, 4, and 5. Blood was harvested on day 5 under the isoflurane vapor and plasma were obtained by added EDTA and red blood cells were removed by pharma lyse (BD, Franklin Lakes, N.J.). Cells were analyzed by FACS (BD, Franklin lakes, NJ). The spleen was harvested on day 5 under isoflurane vapor, then placed in the Tri reagent (Cosmobio, Tokyo, Japan) for further analysis. Statistical analysis was performed by Student t-tests by using GraphPad Prism *P<0.05 vs. Control. **P<0.01 vs Control (n=5)."}}, "note": "Where “and” joins values, the source holds several entries; their conditions need not be identical. Identical values can stand only once. Numbered stars: 1 amine (or outer) side, 2 acyl side, 3 side chain; on linkers, the order of the positions; unused ones are H or OH. Bridge positions count the residues as written; N and C are the ends. Square brackets hold non-standard residues; d marks the D form. Peptide text beside a SMILES is read from it. * marks the point of attachment. C18 diacid = O=C(O)CCCCCCCCCCCCCCCCC(=O)*; γGlu = O=C(O)[C@H](CCC(=O)[*:2])N[*:1]; Aad = N[C@@H](CCCC(=O)O)C(=O)O; AEEA = NCCOCCOCC(=O)O"}
{"compound": "CC[C@H](C)[C@@H]1NC(=O)[C@H](CCCNC(=N)N)NC(=O)[C@H](CC(=O)O)NC(=O)[C@H](CC(C)C)NC(=O)[C@H](CCCCN)NC(=O)[C@H](CC(C)C)NC(=O)CNC(=O)[C@H](Cc2ccccc2)NC(=O)[C@@H](NC(=O)CNC(=O)[C@H](CCCCN)NC(=O)[C@H](CO)NC(=O)[C@H](CC(C)C)NC(=O)CN)CSSC[C@@H](C(=O)O)NC(=O)CNC(=O)[C@H](CC(C)C)NC(=O)CNC(=O)[C@H](CO)NC(=O)[C@H](CCSC)NC(=O)[C@H](CO)NC(=O)CNC1=O", "note": "[native CNP]", "values": [{"measurement": "plasma CNP", "setting": "[1]", "value": "low plasma level"}, {"measurement": "heart rate", "setting": "[2]", "value": "significant increase"}, {"measurement": "systolic and diastolic blood pressure", "setting": "[2]", "value": "significant decrease"}, {"measurement": "half-life", "setting": "[3]", "value": "2 to 13 min and 2 min"}]}
{"compound": "CC[C@H](C)[C@@H]1NC(=O)[C@H](CCCNC(=N)N)NC(=O)[C@H](CC(=O)O)NC(=O)[C@H](CC(C)C)NC(=O)[C@H](CCCCN)NC(=O)[C@H](CC(C)C)NC(=O)CNC(=O)[C@H](Cc2ccccc2)NC(=O)[C@@H](NC(=O)CNC(=O)COCCOCCNC(=O)COCCOCCNC(=O)CC[C@H](NC(=O)CCCCCCCCCCCCCCCCC(=O)O)C(=O)O)CSSC[C@@H](C(=O)O)NC(=O)CNC(=O)[C@H](CC(C)C)NC(=O)CNC(=O)[C@H](CO)NC(=O)[C@H](CCCC(N)=O)NC(=O)[C@H](CO)NC(=O)CNC1=O", "note": "[dCNP-s2] ({C18 diacid-γGlu-AEEA-AEEA}-GCFGLKLDRIGS[Aad](NH2)SGLGC-OH; disulfide 2-18)", "values": [{"measurement": "blood level of CNP relative to native CNP at similar weight/Kg dose", "setting": "[4]", "value": 10, "unit": "fold"}]}
{"compound": "CC(=O)O[C@@]12CO[C@@H]1C[C@H](O)[C@@]1(C)C(=O)[C@H](O)C3=C(C)[C@@H](OC(=O)[C@H](O)[C@@H](NC(=O)OC(C)(C)C)c4ccccc4)C[C@@](O)([C@@H](OC(=O)c4ccccc4)[C@H]21)C3(C)C", "note": "[Docetaxel]", "values": [{"measurement": "tumor growth suppressing effect in the presence of Anti-CD8 antibody", "setting": "[5]", "value": "remained"}, {"measurement": "anti-tumor effect with anti-CD8 antibody", "setting": "[6]; anti-CD8 5 mg/Kg i.p.", "value": "could not be neutralized by Anti-CD8"}, {"measurement": "Ang 2 gene expression within the prostate tumor", "setting": "[7]", "value": "not"}, {"measurement": "TGFβ gene expression within the prostate tumor", "setting": "[7]", "value": "not"}, {"measurement": "alpha-smooth muscle actin (α-SMA) gene expression within the prostate tumor", "setting": "[7]", "value": "not"}]}
{"compound": "CC[C@H](C)[C@@H]1NC(=O)[C@H](CCCNC(=N)N)NC(=O)[C@H](CC(=O)O)NC(=O)[C@H](CC(C)C)NC(=O)[C@H](CCCCN)NC(=O)[C@H](CC(C)C)NC(=O)CNC(=O)[C@H](Cc2ccccc2)NC(=O)[C@@H](NC(=O)CNC(=O)COCCOCCNC(=O)COCCOCCNC(=O)CCCCCCCCCCCCCCCCC(=O)O)CSSC[C@@H](C(=O)O)NC(=O)CNC(=O)[C@H](CC(C)C)NC(=O)CNC(=O)[C@H](CO)NC(=O)[C@H](CCCC(N)=O)NC(=O)[C@H](CO)NC(=O)CNC1=O", "note": "[dCNP-s1] ({C18 diacid-AEEA-AEEA}-GCFGLKLDRIGS[Aad](NH2)SGLGC-OH; disulfide 2-18)", "values": [{"measurement": "blood level of CNP relative to native CNP at similar weight/Kg dose", "setting": "[4]", "value": 10, "unit": "fold"}]}
{"compound": "CCCCCCCCCCCCCCCCCC(=O)N[C@@H](CCCCN)C(=O)N[C@@H](CCCCN)C(=O)N[C@@H](CCCCN)C(=O)N[C@@H](CCCCN)C(=O)NCC(=O)NCC(=O)NCC(=O)NCC(=O)N[C@@H](CC(C)C)C(=O)N[C@@H](CO)C(=O)N[C@@H](CCCCN)C(=O)NCC(=O)N[C@H]1CSSC[C@@H](C(=O)O)NC(=O)CNC(=O)[C@H](CC(C)C)NC(=O)CNC(=O)[C@H](CO)NC(=O)[C@H](CCSC)NC(=O)[C@H](CO)NC(=O)CNC(=O)[C@H]([C@@H](C)CC)NC(=O)[C@H](CCCNC(=N)N)NC(=O)[C@H](CC(=O)O)NC(=O)[C@H](CC(C)C)NC(=O)[C@H](CCCCN)NC(=O)[C@H](CC(C)C)NC(=O)CNC(=O)[C@H](Cc2ccccc2)NC1=O", "note": "[dCNP]", "values": [{"measurement": "lethality", "setting": "[6]; TRAMPC-1 tumor bearing mice", "value": "less lethal than cytotoxic chemotherapeutic agent (Docetaxel)"}, {"measurement": "cytotoxic (CD8) T-cells in blood", "setting": "[8]", "value": "increase"}]}
